# Patent publication US8642087B1, “Compounds and methods for reducing oxidative stress” (University of Kentucky Research Foundation, priority 2010, dated 2014)
# Assays:
# HUVECs [1] = experiment: HNE-induced oxidative stress injury to HUVEC monolayer, transendothelial electrical resistance (TEER); format: cell-based, human; conditions: 20 hours; degradation products 100 μg/mL alone; HNE 30 μM alone
# Procedure: To assess the effect of 4-hydroxy-2-trans-nonenal (HNE)-induced oxidative stress injury to HUVECs in the presence of PAβAE degradation products, transendothelial electrical resistance (TEER) values were measured and used to monitor the permeability and injury of the cells subsequent to exposure to the degradation products of PAβAE and FINE. Briefly, HUVECs were seeded into 24 well plate Transwell inserts (Corning Costar Transwell Plates). Wells were rinsed with HBSS and media replaced every other day. TEER values (EVOM II reader, World Precision Instruments) were monitored every day until resistance stabilization after approximately 7 days. HUVECs were treated with degradation products of PAβAE, including 10% quercetin multiacrylate (QMA) and 10% curcumin multiacrylate (CMA), at a concentration of 100 μg/mL in the cell media for 1 hour. Following prophylactic incubation, and without removing PABAE degradation products, FINE was added to a final concentration 30 μM to induce oxidative injury. TEER was measured before cells were seeded, immediately before addition PABAE degradation products, and 20 hours following FINE incubation, which is consistent with maximum FINE induced injury. Change in TEER was calculated as shown below in Eq. 4. Change in TEER=(Ω20 hr−ΩTranswell insert)/(Ω0 hr−ΩTranswell insert) (4)
# in vitro = conditions: human
# Procedure: (§1) To further examine the properties of the PAβAE hydrogels and their ability to be used as a polymer that is capable of controllably releasing an antioxidant molecule, the cytotoxicity of PAβAE degradation products was measured. In this analysis, human umbilical vein endothelial cells (HUVECs) were first purchased from Lonza (Allendale, N.J.) and cultured in EGM-2 media with 2% fetal bovine serum at 37° C. in a humidified atmosphere of 5% CO2, with HUVECs in passages 3 to 5 then being used. To assess the cytotoxicity of the degradation products, the HUVECs were then treated with degradation products of the PAβAEs at different concentrations and a MTT assay was used to measure cell viability after treating cells with the different concentrations of PAβAE degradation products. Briefly, HUVECs were seeded onto a 96-well plate at a cell density of 35,000 cells/cm^2, and, 24 hrs later, cell media was replaced with treatment solutions. 24 hrs post treatment, treatment solution was removed, cells were washed twice in PBS, and 200 μL of 0.5 mg/ml MTT solution in cell media was added to each well. The 96-well plate was then incubated at 37° C. for 12 hrs and the cell media was gently removed from the wells. 100 μL of DMSO was added to each well to dissolve the formazan product. The absorbance intensity was recorded, at 570 nm for formazan and at 690 for background, using a Cary-50 Bio UV-Visible spectrophotometer equipped with a Cary 50 MPR microplate reader (Varian, Santa Clara, Calif.).
# (§2) PAβAE degradation products were then freeze dried and dissolved in DMSO at a concentration of 100 mg/ml. These concentrated DMSO solutions were then used to prepare fresh dilute solutions of PAβAE degradation products in cell media. Cells were treated with these PAβAE solutions for their cytotoxicity and their effect on cellular oxidative stress levels. To prepare quercetin and curcumin solutions, antioxidants were dissolved in DMSO at a concentration of 10 mg/ml and diluted in cell media.
# [2] = system: human umbilical vein endothelial cells (HUVECs); conditions: 24 h
# Procedure: as §1, §2
# HUVECs [3] = experiment: H2O2-induced oxidative stress injury to HUVECs, cell viability by MTT assay; format: cell-based, human; conditions: for cell viability compared to untreated control cells: pre-treatment 2 hrs, then 500 μM H2O2, 24 hrs
# Procedure: To assess the effect of H2O2-induced oxidative stress injury to HUVECs in the presence of PAβAE degradation products, cell viability was measured and used as a marker of the injury to the cells subsequent to exposure to the degradation products of PAβAE and H2O2. […] Cells were exposed to antioxidants at different concentrations and a final H2O2 concentration of 500 μM. 24 hrs later, cell viability was measured using MTT assay as described above.
# HUVECs [4] = conditions: literature, cited from earlier work
# [5] = system: human normal liver cells L-02; conditions: literature; cited from earlier work
structure (smiles),measurement,setting,value
"CCCCCC(O)/C=C/C=O (stereo not drawn) [HNE, 4-hydroxy-2-trans-nonenal]",Change in TEER compared to the TEER measurement at 0 hours,HUVECs [1],75±2
COc1cc(/C=C/C(=O)CC(=O)/C=C/c2ccc(O)c(OC)c2)ccc1O [curcumin],IC50 at 24 h,in vitro,6.8 µg/mL
same,cell death,[2]; 5 μg/ml,40%
same,cell viability compared to untreated control cells,HUVECs [3],57.7 ± 1.6
same,previously reported IC50 value for HUVECs,HUVECs [4],10.8 µg/mL
"OO [H2O2, hydrogen peroxide]",viability at 500 µM,"HUVECs [3]; Homo sapiens, HUVEC, 500 μM H2O2 only, 24 hrs, read-out: cell viability compared to untreated control cells",72.9%
"O=c1c(O)c(-c2ccc(O)c(O)c2)oc2cc(O)cc(O)c12 [quercetin, Quercetin]",cytotoxicity (in words),[2],toxicity to HUVECs was note observed up to a concentration of 100 μg/ml
same,cell viability compared to untreated control cells,HUVECs [3],101.13 ± 3.8
same,IC50,[5],113 µM
same,previously reported IC50 value for HUVECs,HUVECs [4],18.4 µg/mL
same,IC50,HUVECs [4]; read-out: previously reported IC50 value for HUVECs,61 µM
